Experimental data published in ChEMBL document CHEMBL3885861, “Open TG-GATES”.

Organism: Rattus norvegicus
Test: Open TG-GATES - Regimen: Daily Repeat
Assay type: toxicity, organism-based, Sprague-Dawley
Set-up: regimen Daily Repeat, gender Male, age 6 weeks
Settings: in vivo, po, 500 mg/kg, route gavage, dose level High; for APTT / Bas / Eos / Fbg / Hb / Ht / Lym / MCH / MCHC / MCV / Mono / Neu / PT / Plat / RBC / Ret / WBC: tissue Blood; for KIDNEY_L / KIDNEY_R / KIDNEY_TOTAL: tissue Kidney; for LIVER: tissue Liver; for A/G / ALP / ALT / AST / BUN / CRE / Ca / Cl / DBIL / GLC / IP / K / LDH / Na / PL / RALB / TBIL / TC / TG / TP / gamma-GTP: tissue Plasma

SMILES: CC(=O)Oc1cc(C(C)C)c(OCCN(C)C)cc1C [MOXISYLYTE]
- TERMINAL_BW (72 h, time 3 day): 224 g
- APTT (72 h, time 3 day): 20.8 s
- Bas (72 h, time 3 day): 0%
- Eos (72 h, time 3 day): 1%
- Fbg (72 h, time 3 day): 325 mg/dL
- Hb (72 h, time 3 day): 14.2 g/dL
- Ht (72 h, time 3 day): 40.8%
- Lym (72 h, time 3 day): 76%
- MCH (72 h, time 3 day): 21.2 pg
- MCHC (72 h, time 3 day): 34.8%
- MCV (72 h, time 3 day): 61 fL
- Mono (72 h, time 3 day): 2.8%
- Neu (72 h, time 3 day): 20%
- PT (72 h, time 3 day): 15.7 s
- Plat (72 h, time 3 day): 118.1 x10_4/uL
- RBC (72 h, time 3 day): 669.4 x10_4/ul
- Ret (72 h, time 3 day): 6.3%
- WBC (72 h, time 3 day): 95.6 x10_2/uL
- KIDNEY_L (72 h, time 3 day): 1 g
- KIDNEY_R (72 h, time 3 day): 1 g
- KIDNEY_TOTAL (72 h, time 3 day): 2 g
- LIVER (72 h, time 3 day): 10.7 g
- A/G (72 h, time 3 day): 1.3
- ALP (72 h, time 3 day): 1492.8 IU/L
- ALT (72 h, time 3 day): 46.6 IU/L
- AST (72 h, time 3 day): 77.6 IU/L
- BUN (72 h, time 3 day): 17.6 mg/dL
- CRE (72 h, time 3 day): 0.2 mg/dL
- Ca (72 h, time 3 day): 10.9 mg/dL
- Cl (72 h, time 3 day): 106.4 meq/L
- DBIL (72 h, time 3 day): 0.004 mg/dL
- GLC (72 h, time 3 day): 176.4 mg/dL
- IP (72 h, time 3 day): 7.6 mg/dL
- K (72 h, time 3 day): 4.4 meq/L
- LDH (72 h, time 3 day): 244.2 IU/L
- Na (72 h, time 3 day): 142.6 meq/L
- PL (72 h, time 3 day): 177.6 mg/dL
- RALB (72 h, time 3 day): 3.2 g/dL
- TBIL (72 h, time 3 day): 0.012 mg/dL
- TC (72 h, time 3 day): 92.2 mg/dL
- TG (72 h, time 3 day): 118.6 mg/dL
- TP (72 h, time 3 day): 5.8 g/dL
- gamma-GTP (72 h, time 3 day): 1.2 IU/L
- TERMINAL_BW ([…], time 7 day): 243.1 g
- TERMINAL_BW ([…], time 14 day): 311.5 g
- TERMINAL_BW ([…], time 28 day): 377.7 g
- APTT ([…], time 7 day): 21.5 s
- Bas ([…], time 7 day): 0%
- Eos ([…], time 7 day): 0.8%
- Fbg ([…], time 7 day): 317.8 mg/dL
- Hb ([…], time 7 day): 13.6 g/dL
- Ht ([…], time 7 day): 38.5%
- Lym ([…], time 7 day): 76.6%
- MCH ([…], time 7 day): 21 pg
- MCHC ([…], time 7 day): 35.3%
- MCV ([…], time 7 day): 59.4 fL
- Mono ([…], time 7 day): 2.4%
- Neu ([…], time 7 day): 19.6%
- PT ([…], time 7 day): 15.4 s
- Plat ([…], time 7 day): 118.7 x10_4/uL
- RBC ([…], time 7 day): 649.6 x10_4/ul
- Ret ([…], time 7 day): 4.8%
- WBC ([…], time 7 day): 113.3 x10_2/uL
- APTT ([…], time 14 day): 22.2 s
- Bas ([…], time 14 day): 0%
- Eos ([…], time 14 day): 1%
- Fbg ([…], time 14 day): 314.8 mg/dL
- Hb ([…], time 14 day): 14.6 g/dL
- Ht ([…], time 14 day): 39.8%
- Lym ([…], time 14 day): 74.4%
- MCH ([…], time 14 day): 21.2 pg
- MCHC ([…], time 14 day): 36.7%
- MCV ([…], time 14 day): 57.9 fL
- Mono ([…], time 14 day): 2.2%
- Neu ([…], time 14 day): 21.6%
- PT ([…], time 14 day): 15.8 s
- Plat ([…], time 14 day): 122.7 x10_4/uL
- RBC ([…], time 14 day): 688.2 x10_4/ul
- Ret ([…], time 14 day): 5%
- WBC ([…], time 14 day): 116.2 x10_2/uL
- APTT ([…], time 28 day): 21.9 s
- Bas ([…], time 28 day): 0%
- Eos ([…], time 28 day): 1.2%
- Fbg ([…], time 28 day): 311 mg/dL
- Hb ([…], time 28 day): 15 g/dL
- Ht ([…], time 28 day): 42.8%
- Lym ([…], time 28 day): 79.2%
- MCH ([…], time 28 day): 18.7 pg
- MCHC ([…], time 28 day): 35.1%
- MCV ([…], time 28 day): 53.3 fL
- Mono ([…], time 28 day): 1.6%
- Neu ([…], time 28 day): 17.4%
- PT ([…], time 28 day): 15.3 s
- Plat ([…], time 28 day): 105.2 x10_4/uL
- RBC ([…], time 28 day): 802.6 x10_4/ul
- Ret ([…], time 28 day): 2.9%
- WBC ([…], time 28 day): 118.3 x10_2/uL
- KIDNEY_L ([…], time 7 day): 1.1 g
- KIDNEY_R ([…], time 7 day): 1.1 g
- KIDNEY_TOTAL ([…], time 7 day): 2.1 g
- KIDNEY_L ([…], time 14 day): 1.2 g
- KIDNEY_R ([…], time 14 day): 1.3 g
- KIDNEY_TOTAL ([…], time 14 day): 2.5 g
- KIDNEY_L ([…], time 28 day): 1.4 g
- KIDNEY_R ([…], time 28 day): 1.4 g
- KIDNEY_TOTAL ([…], time 28 day): 2.8 g
- LIVER ([…], time 7 day): 11.2 g
- LIVER ([…], time 14 day): 14.8 g
- LIVER ([…], time 28 day): 15.5 g
- A/G ([…], time 7 day): 1.3
- ALP ([…], time 7 day): 1348.8 IU/L
- ALT ([…], time 7 day): 46.2 IU/L
- AST ([…], time 7 day): 74.8 IU/L
- BUN ([…], time 7 day): 19 mg/dL
- CRE ([…], time 7 day): 0.2 mg/dL
- Ca ([…], time 7 day): 10.6 mg/dL
- Cl ([…], time 7 day): 105.8 meq/L
- DBIL ([…], time 7 day): 0 mg/dL
- GLC ([…], time 7 day): 168.8 mg/dL
- IP ([…], time 7 day): 6.7 mg/dL
- K ([…], time 7 day): 4.1 meq/L
- LDH ([…], time 7 day): 205.6 IU/L
- Na ([…], time 7 day): 141.6 meq/L
- PL ([…], time 7 day): 169.8 mg/dL
- RALB ([…], time 7 day): 3.1 g/dL
- TBIL ([…], time 7 day): 0.012 mg/dL
- TC ([…], time 7 day): 86.4 mg/dL
- TG ([…], time 7 day): 120.8 mg/dL
- TP ([…], time 7 day): 5.5 g/dL
- gamma-GTP ([…], time 7 day): 1.4 IU/L
- A/G ([…], time 14 day): 1.2
- ALP ([…], time 14 day): 1394 IU/L
- ALT ([…], time 14 day): 43.6 IU/L
- AST ([…], time 14 day): 69.2 IU/L
- BUN ([…], time 14 day): 17.4 mg/dL
- CRE ([…], time 14 day): 0.2 mg/dL
- Ca ([…], time 14 day): 10.6 mg/dL
- Cl ([…], time 14 day): 104.6 meq/L
- DBIL ([…], time 14 day): 0 mg/dL
- GLC ([…], time 14 day): 179.4 mg/dL
- IP ([…], time 14 day): 6.7 mg/dL
- K ([…], time 14 day): 3.7 meq/L
- LDH ([…], time 14 day): 123.6 IU/L
- Na ([…], time 14 day): 141.4 meq/L
- PL ([…], time 14 day): 171 mg/dL
- RALB ([…], time 14 day): 3.2 g/dL
- TBIL ([…], time 14 day): 0.006 mg/dL
- TC ([…], time 14 day): 83.2 mg/dL
- TG ([…], time 14 day): 190 mg/dL
- TP ([…], time 14 day): 5.8 g/dL
- gamma-GTP ([…], time 14 day): 1 IU/L
- A/G ([…], time 28 day): 1.1
- ALP ([…], time 28 day): 1129.4 IU/L
- ALT ([…], time 28 day): 47.6 IU/L
- AST ([…], time 28 day): 69.8 IU/L
- BUN ([…], time 28 day): 17.6 mg/dL
- CRE ([…], time 28 day): 0.2 mg/dL
- Ca ([…], time 28 day): 10.7 mg/dL
- Cl ([…], time 28 day): 106 meq/L
- DBIL ([…], time 28 day): 0.004 mg/dL
- GLC ([…], time 28 day): 189 mg/dL
- IP ([…], time 28 day): 6.4 mg/dL
- K ([…], time 28 day): 4.1 meq/L
- LDH ([…], time 28 day): 151.2 IU/L
- Na ([…], time 28 day): 142.2 meq/L
- PL ([…], time 28 day): 173.6 mg/dL
- RALB ([…], time 28 day): 3.2 g/dL
- TBIL ([…], time 28 day): 0.008 mg/dL
- TC ([…], time 28 day): 87 mg/dL
- TG ([…], time 28 day): 152.2 mg/dL
- TP ([…], time 28 day): 6.2 g/dL
- gamma-GTP ([…], time 28 day): 2 IU/L
